Results reported in patent US20260115209A1, “COMBINATION THERAPY INCLUDING COX-2 INHIBITOR FOR THE TREATMENT OF CANCER” (THE REGENTS OF THE UNIVERSITY OF CALIFORNIA, priority 2022, published 2026).

What was measured:
Format in all cases: cell-based
[1] = system: SFK; experiment: Western blot of SFK activation (Y419 phosphorylation); conditions: BRAF^V600E CRC cell lines
Protocol: For samples to be analyzed with the HT-KAM platform, cells at ˜85% confluency were washed three times with cold PBS and lysed with freshly prepared 1× cell lysis buffer (1 ml per 2.5×10^6 cells) (lOX Cell Lysis Buffer, Cell Signaling; cat. #9803) complemented with 1× of Halt Protease & Phosphatase (100×, ThermoScientific; cat. #1861281). Cell lysates were collected and spun down at 14,000 rpm for 15 min at 4° C. and supernatants stored at −80° C. For samples to be analyzed by western blot, cell lysates were prepared with RIPA lysis buffer (150 mM NaCl, 0.1% SDS, 1% Nonidet P40, 1% sodium deoxycholate and 10 mM sodium phosphate, pH 7.2) supplemented with protease and phosphatase inhibitors. After clearing by centrifugation at 12,000 rpm for 10 minutes at 4° C., the lysates were analyzed as described in the respective experiments.
For western-blot, samples were denatured by boiling in 1× Laemmli buffer and run on an 8% SDS-PAGE gel. After transfer onto a PVDF membrane and blocking with 3% BSA, the membranes were incubated with primary antibodies overnight at 4° C., washed 3 times with TBST (Tris-buffered saline containing 0.05% Tween-20), incubated with secondary antibodies for 1 hour at room temperature and developed using chemoluminescence (cat #32209 from Pierce).
Antibodies anti-HSP90 was procured from Santa Cruz Biotechnologies (H-114, cat #7947). […]

[2] = system: A375; experiment: Cell viability assay (CellTiter-Glo), GI50, 3-day treatment; conditions: Homo sapiens, A-375, 72 h; A375 (BRAF^V600E melanoma); 50% growth inhibition after 3 days of treatment compared to control; read-out: GI50 concentrations
Protocol: (§1) To assess the growth/survival response of cell lines to single or combinatorial drug treatments, we used CellTiter-Glo cell viability assay (Promega; cat #G7571). Cell culture and luminescence readouts were performed in 96- and 384-well plates after 3-day treatments. GI50 corresponds to the concentration of a given drug that causes 50% inhibition of cell growth (GI50). The effects of drug combinations on cell growth were assessed by calculating fold change in VEM-sensitivity and combination index (C.I.) that were experimentally measured from ≥9 individual datapoints around drugs' GI50, i.e. at GI50, 0.5×GI50, 2×GI50 concentrations of each drug per drug combination experiment. To address the particular effects of some drug treatments on some cell lines, the choice of experimental datapoints centered around drugs' GI50 effects was adjusted by including individual datapoints ranging from ≥GI25 to ≤GI75, leading to calculate fold change in VEM-sensitivity and combination index (C.I.) from 12 to 20 individual datapoints, as previously explained (7).

[3] = system: Sk-Mel-28; experiment: as above; conditions: Homo sapiens, 72 h; Sk-Mel-28 (BRAF^V600E melanoma); 50% growth inhibition after 3 days of treatment compared to control; read-out: GI50 concentrations
Protocol: as §1

[4] = system: KM20; experiment: as above; conditions: 72 h; KM20 (BRAF^V600E CRC); 50% growth inhibition after 3 days of treatment compared to control; read-out: GI50 concentrations
Protocol: as §1

[5] = system: HT29; experiment: as above; conditions: Homo sapiens, HT-29, 72 h; HT29 (BRAF^V600E CRC); 50% growth inhibition after 3 days of treatment compared to control; read-out: GI50 concentrations
Protocol: as §1

[6] = system: LS411N; experiment: as above; conditions: Homo sapiens, LS-411N, 72 h; LS411N (BRAF^V600E CRC); 50% growth inhibition after 3 days of treatment compared to control; read-out: GI50 concentrations
Protocol: as §1

[7] = system: OUMS23; experiment: as above; conditions: OUMS-23, 72 h; OUMS23 (CRC MAP3K8^amp); 50% growth inhibition after 3 days of treatment compared to control; read-out: GI50 concentrations
Protocol: as §1

[8] = system: RKO1; experiment: as above; conditions: 72 h; RKO1 (BRAF^V600E CRC); 50% growth inhibition after 3 days of treatment compared to control; read-out: GI50 concentrations
Protocol: as §1

[9] = system: WiDr; experiment: as above; conditions: Homo sapiens, 72 h; WiDr (BRAF^V600E CRC); 50% growth inhibition after 3 days of treatment compared to control; read-out: GI50 concentrations
Protocol: as §1

[10] = system: LIM2405; experiment: as above; conditions: 72 h; LIM2405 (BRAF^V600E CRC); 50% growth inhibition after 3 days of treatment compared to control; read-out: GI50 concentrations
Protocol: as §1

[11] = system: VACO432; experiment: as above; conditions: 72 h; VACO432 (BRAF^V600E CRC); 50% growth inhibition after 3 days of treatment compared to control; read-out: GI50 concentrations
Protocol: as §1

[12] = system: SNUC5; experiment: as above; conditions: 72 h; SNUC5 (BRAF^V600E CRC); 50% growth inhibition after 3 days of treatment compared to control; read-out: GI50 concentrations
Protocol: as §1

CCCS(=O)(=O)Nc1ccc(F)c(C(=O)c2c[nH]c3ncc(-c4ccc(Cl)cc4)cc23)c1F [vemurafenib, N-[3-[5-(4-chlorophenyl)-1H-pyrrolo[2,3-b]pyridine-3-carbonyl]-2,4-difluorophenyl]propane-1-sulfonamide]
SFK activation (phosphorylation of Y419) [1]: increased SFK activation | GI50 [2]: 0.01 µM | GI50 [3]: 0.15 µM | GI50 [4]: 2 µM | GI50 [5]: 1.75 µM | GI50 [6]: 1.45 µM | GI50 [7]: 1.4 µM | GI50 [8]: 1.7 µM | GI50 [9]: 1.5 µM | GI50 [10]: 0.15 µM | GI50 [11]: 1.15 µM | GI50 [12]: 2.25 µM
